Assay results: publication PMC7658267, “Effects of CYP46A1 Inhibition on Long-Term-Depression in Hippocampal Slices ex vivo and 24S-Hydroxycholesterol Levels in Mice in vivo” (Frontiers in Molecular Neuroscience, 2020)
Like-named read-outs stand apart in the source and are kept apart here.

Legend:
Test in all cases: biochemical
Human 5-HT5A = target: T1, Human 5-HT5A (Homo sapiens, UniProt P47898); set-up: CEREP off-target binding panel, per cent inhibition at 10 uM, n = 2
T1 construct: gene HTR5A

Human 5-HT6 = target: T2, Human 5-HT6 (Homo sapiens, UniProt P50406); set-up: CEREP off-target binding panel, per cent inhibition at 10 uM, n = 2
T2 construct: gene HTR6

Human 5-HT7 = target: T3, Human 5-HT7 (Homo sapiens, UniProt P34969); set-up: CEREP off-target binding panel, per cent inhibition at 10 uM, n = 2
T3 construct: gene HTR7

Human A2A = target: T4, Human A2A (Homo sapiens, UniProt P29274); set-up: CEREP off-target binding panel, per cent inhibition at 10 uM, n = 2
T4 construct: gene ADORA2A

Human AT1 = target: T5, Human AT1 (Homo sapiens, UniProt P30556); set-up: CEREP off-target binding panel, per cent inhibition at 10 uM, n = 2
T5 construct: gene AGTR1

Human CB1 = target: T6, Human CB1 (Homo sapiens, UniProt P21554); set-up: CEREP off-target binding panel, per cent inhibition at 10 uM, n = 2
T6 construct: gene CNR1

Human CCR1 = Human CCR1 (Homo sapiens, UniProt P32246); set-up: CEREP off-target binding panel, per cent inhibition at 10 uM, n = 2
Human D1 = target: T7, Human D1 (Homo sapiens, UniProt P21728); set-up: CEREP off-target binding panel, per cent inhibition at 10 uM, n = 2
T7 construct: gene DRD1

Human D2s = target: T8, Human D2s (Homo sapiens, UniProt P14416); set-up: CEREP off-target binding panel, per cent inhibition at 10 uM, n = 2
T8 construct: gene DRD2; D2s

Human DOP = target: T9, Human DOP (Homo sapiens, UniProt P41143); set-up: CEREP off-target binding panel, per cent inhibition at 10 uM, n = 2
T9 construct: gene OPRD1

Human GR = target: T10, Human GR (Homo sapiens, UniProt P04150); set-up: CEREP off-target binding panel, per cent inhibition at 10 uM, n = 2
T10 construct: gene NR3C1

Human H2 = target: T11, Human H2 (Homo sapiens, UniProt P25021); set-up: CEREP off-target binding panel, per cent inhibition at 10 uM, n = 2
T11 construct: gene HRH2

Human KOP = target: T12, Human KOP (Homo sapiens, UniProt P41145); set-up: CEREP off-target binding panel, per cent inhibition at 10 uM, n = 2
T12 construct: gene OPRK1

Human M3 = target: T13, Human M3 (Homo sapiens, UniProt P20309); set-up: CEREP off-target binding panel, per cent inhibition at 10 uM, n = 2
T13 construct: gene CHRM3

Human MOP = target: T14, Human MOP (Homo sapiens, UniProt P35372); set-up: CEREP off-target binding panel, per cent inhibition at 10 uM, n = 2
T14 construct: gene OPRM1

Human NOP = target: T15, Human NOP (Homo sapiens, UniProt P41146); set-up: CEREP off-target binding panel, per cent inhibition at 10 uM, n = 2
T15 construct: gene OPRL1

Human NTS1 = target: T16, Human NTS1 (Homo sapiens, UniProt P30989); set-up: CEREP off-target binding panel, per cent inhibition at 10 uM, n = 2
T16 construct: gene NTSR1

Human PR = target: T17, Human PR (Homo sapiens, UniProt P06401); set-up: CEREP off-target binding panel, per cent inhibition at 10 uM, n = 2
T17 construct: gene PGR

Human VPAC1 = target: T18, Human VPAC1 (Homo sapiens, UniProt P32241); set-up: CEREP off-target binding panel, per cent inhibition at 10 uM, n = 2
T18 construct: gene VIPR1

Human Y1 = target: T19, Human Y1 (Homo sapiens, UniProt P25929); set-up: CEREP off-target binding panel, per cent inhibition at 10 uM, n = 2
T19 construct: gene NPY1R

Human Y2 = target: T20, Human Y2 (Homo sapiens, UniProt P49146); set-up: CEREP off-target binding panel, per cent inhibition at 10 uM, n = 2
T20 construct: gene NPY2R

Human Eta = target: T21, Human Eta (Homo sapiens, UniProt P25101); set-up: CEREP off-target binding panel, per cent inhibition at 10 uM, n = 2
T21 construct: gene EDNRA

Human 5-HT transporter = target: T22, Human 5-HT transporter (Homo sapiens, UniProt P31645); set-up: CEREP off-target binding panel, per cent inhibition at 10 uM, n = 2
T22 construct: gene SLC6A4

[1] = target: T23, Human norepinephrine transporter (Homo sapiens, UniProt P23975); set-up: CEREP off-target binding panel, per cent inhibition at 10 uM, n = 2
T23 construct: gene SLC6A2

[2] = target: T24, Human dopamine transporter (Homo sapiens, UniProt Q01959); set-up: CEREP off-target binding panel, per cent inhibition at 10 uM, n = 2
T24 construct: gene SLC6A3

CYP2C19 = CYP2C19 (Homo sapiens, UniProt P33261); set-up: CYP off-target inhibition panel
Sequence of CYP2C19 (P33261 whole entry): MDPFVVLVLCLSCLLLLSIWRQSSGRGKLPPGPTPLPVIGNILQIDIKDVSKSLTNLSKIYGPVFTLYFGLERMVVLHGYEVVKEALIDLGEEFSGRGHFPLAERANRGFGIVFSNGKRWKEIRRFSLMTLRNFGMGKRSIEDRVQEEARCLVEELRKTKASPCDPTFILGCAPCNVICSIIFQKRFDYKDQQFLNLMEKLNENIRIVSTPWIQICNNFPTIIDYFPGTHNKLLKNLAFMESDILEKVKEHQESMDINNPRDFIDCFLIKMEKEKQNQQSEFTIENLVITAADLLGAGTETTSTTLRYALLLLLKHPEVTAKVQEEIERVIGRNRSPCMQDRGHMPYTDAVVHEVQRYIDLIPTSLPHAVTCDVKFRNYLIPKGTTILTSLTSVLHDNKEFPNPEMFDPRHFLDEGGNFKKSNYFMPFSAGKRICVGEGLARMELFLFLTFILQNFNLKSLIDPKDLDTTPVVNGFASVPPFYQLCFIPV

T9 sequence (P41143 whole entry): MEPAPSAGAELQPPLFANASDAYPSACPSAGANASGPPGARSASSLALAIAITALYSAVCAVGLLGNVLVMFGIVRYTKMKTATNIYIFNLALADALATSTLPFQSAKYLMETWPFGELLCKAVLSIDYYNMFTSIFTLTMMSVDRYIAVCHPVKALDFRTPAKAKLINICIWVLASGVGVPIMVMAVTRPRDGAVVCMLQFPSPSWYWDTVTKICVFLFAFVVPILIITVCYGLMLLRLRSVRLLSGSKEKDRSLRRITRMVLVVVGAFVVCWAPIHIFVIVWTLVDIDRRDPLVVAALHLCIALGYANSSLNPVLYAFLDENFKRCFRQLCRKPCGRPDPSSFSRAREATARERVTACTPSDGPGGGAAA
T19 sequence (P25929 whole entry): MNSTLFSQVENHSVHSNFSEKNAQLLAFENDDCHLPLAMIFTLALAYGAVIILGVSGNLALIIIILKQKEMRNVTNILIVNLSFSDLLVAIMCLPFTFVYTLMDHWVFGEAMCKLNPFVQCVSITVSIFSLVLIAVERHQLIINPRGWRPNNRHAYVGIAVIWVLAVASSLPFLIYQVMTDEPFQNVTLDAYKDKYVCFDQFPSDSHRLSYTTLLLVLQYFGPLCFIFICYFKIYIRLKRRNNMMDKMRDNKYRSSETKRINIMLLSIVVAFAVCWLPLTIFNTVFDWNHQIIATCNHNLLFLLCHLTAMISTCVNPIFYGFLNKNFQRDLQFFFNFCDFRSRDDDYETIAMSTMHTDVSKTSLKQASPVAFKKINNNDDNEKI
T23 sequence (P23975 whole entry): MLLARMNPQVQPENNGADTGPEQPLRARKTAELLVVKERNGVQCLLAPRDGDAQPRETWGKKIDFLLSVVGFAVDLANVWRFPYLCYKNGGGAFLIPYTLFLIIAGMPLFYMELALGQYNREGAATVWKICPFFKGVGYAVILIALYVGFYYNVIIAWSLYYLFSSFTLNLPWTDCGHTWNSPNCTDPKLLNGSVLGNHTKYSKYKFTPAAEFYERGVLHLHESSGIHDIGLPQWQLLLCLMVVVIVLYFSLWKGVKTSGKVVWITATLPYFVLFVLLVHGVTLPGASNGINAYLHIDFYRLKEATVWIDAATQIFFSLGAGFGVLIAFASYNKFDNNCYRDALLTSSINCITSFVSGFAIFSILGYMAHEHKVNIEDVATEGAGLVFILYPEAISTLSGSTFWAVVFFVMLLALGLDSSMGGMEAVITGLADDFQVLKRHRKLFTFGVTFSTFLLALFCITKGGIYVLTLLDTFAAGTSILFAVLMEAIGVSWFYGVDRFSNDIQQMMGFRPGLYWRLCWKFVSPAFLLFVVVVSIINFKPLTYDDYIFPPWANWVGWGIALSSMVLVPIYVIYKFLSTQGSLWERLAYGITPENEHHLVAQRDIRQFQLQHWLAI
T6 sequence (P21554 whole entry): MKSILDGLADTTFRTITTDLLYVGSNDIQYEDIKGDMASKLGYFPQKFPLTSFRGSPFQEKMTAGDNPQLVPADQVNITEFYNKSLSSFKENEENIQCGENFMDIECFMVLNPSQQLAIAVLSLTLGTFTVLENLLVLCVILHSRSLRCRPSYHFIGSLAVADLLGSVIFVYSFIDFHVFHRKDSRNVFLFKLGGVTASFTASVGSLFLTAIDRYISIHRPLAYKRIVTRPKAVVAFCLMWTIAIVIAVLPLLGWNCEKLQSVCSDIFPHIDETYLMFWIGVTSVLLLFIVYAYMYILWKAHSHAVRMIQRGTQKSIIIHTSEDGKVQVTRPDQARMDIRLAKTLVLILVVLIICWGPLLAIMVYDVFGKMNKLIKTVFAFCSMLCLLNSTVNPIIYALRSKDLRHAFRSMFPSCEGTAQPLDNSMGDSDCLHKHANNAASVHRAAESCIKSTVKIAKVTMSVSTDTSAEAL
T2 sequence (P50406 whole entry): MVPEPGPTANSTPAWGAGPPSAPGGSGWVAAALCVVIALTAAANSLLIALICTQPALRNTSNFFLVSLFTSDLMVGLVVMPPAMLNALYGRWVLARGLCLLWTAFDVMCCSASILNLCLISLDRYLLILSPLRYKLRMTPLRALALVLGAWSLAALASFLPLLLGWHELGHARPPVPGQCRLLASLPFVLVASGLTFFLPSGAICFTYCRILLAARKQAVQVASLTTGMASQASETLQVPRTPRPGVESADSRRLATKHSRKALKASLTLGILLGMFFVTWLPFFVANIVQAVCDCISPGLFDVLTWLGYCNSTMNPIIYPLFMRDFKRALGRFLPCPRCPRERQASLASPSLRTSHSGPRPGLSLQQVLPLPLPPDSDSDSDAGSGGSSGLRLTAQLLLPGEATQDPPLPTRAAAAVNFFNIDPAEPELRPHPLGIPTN
T12 sequence (P41145 whole entry): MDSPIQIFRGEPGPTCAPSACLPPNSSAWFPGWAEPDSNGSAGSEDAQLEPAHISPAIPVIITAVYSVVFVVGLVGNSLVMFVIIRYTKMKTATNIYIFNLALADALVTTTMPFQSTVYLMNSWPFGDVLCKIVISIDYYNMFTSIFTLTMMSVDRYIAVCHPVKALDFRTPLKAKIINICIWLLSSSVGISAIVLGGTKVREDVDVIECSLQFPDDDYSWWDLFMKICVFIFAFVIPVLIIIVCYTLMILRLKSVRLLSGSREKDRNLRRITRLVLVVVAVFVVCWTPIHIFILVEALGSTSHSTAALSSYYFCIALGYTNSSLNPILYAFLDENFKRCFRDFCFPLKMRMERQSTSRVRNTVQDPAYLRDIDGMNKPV
T4 sequence (P29274 whole entry): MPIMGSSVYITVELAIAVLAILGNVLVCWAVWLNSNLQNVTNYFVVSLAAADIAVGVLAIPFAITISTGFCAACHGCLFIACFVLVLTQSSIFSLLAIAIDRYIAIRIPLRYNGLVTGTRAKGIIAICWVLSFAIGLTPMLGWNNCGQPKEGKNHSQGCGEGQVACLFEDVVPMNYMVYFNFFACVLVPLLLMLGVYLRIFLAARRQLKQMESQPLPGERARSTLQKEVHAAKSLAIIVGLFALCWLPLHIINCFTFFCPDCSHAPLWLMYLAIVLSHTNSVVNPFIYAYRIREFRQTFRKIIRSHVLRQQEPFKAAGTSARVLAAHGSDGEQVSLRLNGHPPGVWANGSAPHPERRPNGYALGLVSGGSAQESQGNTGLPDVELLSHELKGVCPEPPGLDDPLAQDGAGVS
T11 sequence (P25021 whole entry): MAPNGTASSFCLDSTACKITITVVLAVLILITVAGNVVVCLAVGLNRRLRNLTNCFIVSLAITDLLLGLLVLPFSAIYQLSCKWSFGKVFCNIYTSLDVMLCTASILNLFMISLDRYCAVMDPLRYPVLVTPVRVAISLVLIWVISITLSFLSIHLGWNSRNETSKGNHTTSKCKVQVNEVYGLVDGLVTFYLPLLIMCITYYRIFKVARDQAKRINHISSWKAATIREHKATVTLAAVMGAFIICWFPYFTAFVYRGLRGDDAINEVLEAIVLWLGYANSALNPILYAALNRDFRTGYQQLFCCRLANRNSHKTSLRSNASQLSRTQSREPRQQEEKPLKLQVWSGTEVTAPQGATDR
T18 sequence (P32241 whole entry): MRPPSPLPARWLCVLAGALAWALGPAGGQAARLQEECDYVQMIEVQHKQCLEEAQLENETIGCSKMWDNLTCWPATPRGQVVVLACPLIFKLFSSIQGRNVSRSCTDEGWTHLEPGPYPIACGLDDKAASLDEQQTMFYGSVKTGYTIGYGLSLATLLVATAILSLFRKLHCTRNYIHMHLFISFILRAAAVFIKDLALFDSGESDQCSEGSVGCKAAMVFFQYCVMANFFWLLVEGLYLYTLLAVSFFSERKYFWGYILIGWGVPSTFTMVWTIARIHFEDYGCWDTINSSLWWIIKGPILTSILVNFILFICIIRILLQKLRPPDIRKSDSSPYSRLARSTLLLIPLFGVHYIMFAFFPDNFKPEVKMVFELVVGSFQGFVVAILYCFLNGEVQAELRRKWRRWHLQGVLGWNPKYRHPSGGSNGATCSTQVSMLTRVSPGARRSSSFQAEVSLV
Sequence of Human CCR1 (P32246 whole entry): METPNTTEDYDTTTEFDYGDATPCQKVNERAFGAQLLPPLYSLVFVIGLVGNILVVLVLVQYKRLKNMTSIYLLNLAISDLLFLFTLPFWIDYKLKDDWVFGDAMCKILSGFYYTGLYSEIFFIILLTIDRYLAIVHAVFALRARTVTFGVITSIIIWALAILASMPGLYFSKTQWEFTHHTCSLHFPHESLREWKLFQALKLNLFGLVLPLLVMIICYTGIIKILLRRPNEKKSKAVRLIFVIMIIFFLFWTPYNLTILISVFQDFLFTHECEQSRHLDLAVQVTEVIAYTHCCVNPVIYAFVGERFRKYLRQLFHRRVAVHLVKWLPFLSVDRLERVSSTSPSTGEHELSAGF

| Compound | inhibition at 10 µM (Human 5-HT5A) [%] | inhibition at 10 µM (Human 5-HT6) [%] | inhibition at 10 µM (Human 5-HT7) [%] | inhibition at 10 µM (Human A2A) [%] | inhibition at 10 µM (Human AT1) [%] | inhibition at 10 µM (Human CB1) [%] | inhibition at 10 µM (Human CCR1) [%] | inhibition at 10 µM (Human D1) [%] | inhibition at 10 µM (Human D2s) [%] | inhibition at 10 µM (Human DOP) [%] | inhibition at 10 µM (Human GR) [%] | inhibition at 10 µM (Human H2) [%] | inhibition at 10 µM (Human KOP) [%] | inhibition at 10 µM (Human M3) [%] | inhibition at 10 µM (Human MOP) [%] | inhibition at 10 µM (Human NOP) [%] | inhibition at 10 µM (Human NTS1) [%] | inhibition at 10 µM (Human PR) [%] | inhibition at 10 µM (Human VPAC1) [%] | inhibition at 10 µM (Human Y1) [%] | further results |
| --- | --- | --- | --- | --- | --- | --- | --- | --- | --- | --- | --- | --- | --- | --- | --- | --- | --- | --- | --- | --- | --- |
| O=C(c1cnc2c(-c3cnco3)cc(C(F)(F)F)cn12)N1C2CCC1COC2 [compound 1, (3-oxa-8-azabicyclo[3.2.1]octan-8-yl)(8-(oxazol-5-yl)-6-(trifluoromethyl)imidazo[1,2-a]pyridin-3-yl)methanone] | -12.5 | -0.7 | 5.4 | 1.1 | -3.7 | -34.7 | 2.6 | 2.4 | -15.2 | -6.2 | -8.6 | -6.2 | 8 | -9.1 | -0.7 | 1.4 | -9.7 | 2 | 5.5 | -2.9 | inhibition at 10 µM (Human Y2): -3.7%; inhibition at 10 µM (Human Eta): -25.8%; inhibition at 10 µM (Human 5-HT transporter): 1.2%; inhibition at 10 µM [1]: -14.5%; inhibition at 10 µM [2]: 2.1%; IC50 (CYP2C19): > 50 µM |
| O=C(c1cccnc1-c1ccncn1)N1CCC(O)(Cc2ccc(F)cc2)CC1 [compound 2, (4-(4-fluorobenzyl)-4-hydroxypiperidin-1-yl)(2-(pyrimidin-4-yl)pyridin-3-yl)methanone] | 9.6 | 0.9 | 4.2 | -2.6 | -3.2 | -9.2 | -1.7 | -5.3 | -15.4 | -5.8 | -0.6 | -5.4 | -5.2 | 7.3 | 2.5 | 0.6 | -12.2 | -4.7 | -1.9 | -16.3 | inhibition at 10 µM (Human Y2): 6.8%; inhibition at 10 µM (Human Eta): -35.5%; inhibition at 10 µM (Human 5-HT transporter): 0.1%; inhibition at 10 µM [1]: -3.6%; inhibition at 10 µM [2]: 13.8%; IC50 (CYP2C19; read-out: compound 2): > 50 µM |
